# From EP4385980A1, “INDAZOLES AS INHIBITORS OF NAV1.8” (Grünenthal GmbH, priority 2022, dated 2024)
# pIC50: −log10 of the molar value.
# Target: T1, human NaV1.8 (Homo sapiens, UniProt Q9Y5Y9)
# T1 construct: expressed in transfected cells; host or cells: HEK
# Assay: Electrophysiology: voltage-clamp recordings (whole-cell automated patch clamp, Qube384)
# Format: cell-based
# Details: HEK-NaV1.8 with b3 recombinant cell line, ambient room temperature, read-out: Potency category (human NaV1.8 IC50)
# Description: The following NaV1.8 recombinant cell line was used for recordings: HEK-NaV1.8 (NM_006514.1) with b3 (NM_018400.3).
# Sodium currents were measured using the patch clamp technique in the whole-cell configuration using the Qube384 (Sophion A/S, Copenhagen, Denmark) automated voltage clamp platform. "Multi hole" plates were used for the cell line expressing NaV1.8 while "single hole" plates were used for the recombinant cell lines expressing the other subtypes. Appropriate filters (for minimum seal resistance and minimum current size) and series resistance compensation (for high quality sodium channel recordings) were applied. Data was collected at ambient room temperature.
# The recording […] solution contained (in mM): NaCl 145 mM, KCl 4 mM, CaCl2 2 mM, MgCl2 1 mM, HEPES 10 mM, Glucose 10 mM, pH 7.4 (NaOH). The […] recording solution contained (in mM): CsF 120 mM, CsCl 20 mM, NaCl 10 mM, EGTA 10 mM, HEPES 10 mM, pH 7.2 (CsOH). Currents were recorded at 25 kHz sampling frequency and filtered at 5 kHz. Series resistance compensation was applied at 65%.
# Vehicle (VEH) is the control condition where cells are exposed to 0.3 % DMSO without compound. All runs include VEH controls being exposed to the same voltage protocols to assess non-compound related phenomena such as run down and then used to isolate compound dependent effects on currents.
# To check for state-dependence inhibition, the following voltage-sequence was applied every 20 seconds: From a resting membrane potential of-120 mV, the first test pulse (P1; 20 ms to -10 mV) was applied to check for channels in the Resting State followed by a brief recovery (20 ms to -120 mV), then holding the membrane voltage to V1/2 (4 seconds at voltage to obtain half the channel at Rest and half Inactivated) with a subsequent second test pulse (P2; 20 ms to -10 mV) to check for channels in the Inactivated State, followed by another brief recovery (20 ms to -120 mV) and a final third test pulse (P3; 20 ms to -10 mV) to check for recovered channels.
# To check for frequency-dependent inhibition, a 10 Hz protocol and a 20 Hz protocol were applied; namely,
# From a resting membrane potential of -120 mV, 40-pulses (10 ms to -10 mV) was applied at 10 Hz (at 100 ms between pulses) and then at 20 Hz (at 50 ms between pulses).
# Each parameter was recorded (P1, P2, P3, P40 from 10Hz and P40 from 20Hz) during a control period (lasting ~ 5 minutes) when establishing the baseline and during compound period (lasting ~ 12 minutes) when test compound (or vehicle) was applied. For each parameter, the value at the end of the compound period was normalized to the vehicle baseline; as follows Normalized Inhibition (NormCPD) = (CPD Valueend CPD period)/(VEH Valueend Control Period) [formula]
# To adjust for any variance in the Na^+ current signal during the compound period (owing to cumulative inactivation independent of compound or shifts in biophysics over time), a dedicated segment of the recording wells in each 384 plate were dedicated to having only vehicle exposure. These vehicle-only recordings were used to correct for any apparent "run-up" or "run-down" in the experiment. Normalized Inhibition (NormVEH) = (VEH Valueend CPD period)/(VEH Valueend Control Period) [formula]
# The adjusted inhibition was calculated as follows: % Inhibitioncorrected = 100 × (NormCPD −NormVEH)/(100−NormVEH) [formula]
# Percent inhibition was determined and IC50 values were calculated using a 4 parameter logistic model within XLFit Software (IDBS, Boston MA): % Inhibitioncorrected = A + ((B−A))/((1 + (((x)/(C)))^D) [formula] where A and B are the maximal and minimum inhibition respectively, C is the IC50 concentration and D is the (Hill) slope.
# T1 sequence (Q9Y5Y9 whole entry): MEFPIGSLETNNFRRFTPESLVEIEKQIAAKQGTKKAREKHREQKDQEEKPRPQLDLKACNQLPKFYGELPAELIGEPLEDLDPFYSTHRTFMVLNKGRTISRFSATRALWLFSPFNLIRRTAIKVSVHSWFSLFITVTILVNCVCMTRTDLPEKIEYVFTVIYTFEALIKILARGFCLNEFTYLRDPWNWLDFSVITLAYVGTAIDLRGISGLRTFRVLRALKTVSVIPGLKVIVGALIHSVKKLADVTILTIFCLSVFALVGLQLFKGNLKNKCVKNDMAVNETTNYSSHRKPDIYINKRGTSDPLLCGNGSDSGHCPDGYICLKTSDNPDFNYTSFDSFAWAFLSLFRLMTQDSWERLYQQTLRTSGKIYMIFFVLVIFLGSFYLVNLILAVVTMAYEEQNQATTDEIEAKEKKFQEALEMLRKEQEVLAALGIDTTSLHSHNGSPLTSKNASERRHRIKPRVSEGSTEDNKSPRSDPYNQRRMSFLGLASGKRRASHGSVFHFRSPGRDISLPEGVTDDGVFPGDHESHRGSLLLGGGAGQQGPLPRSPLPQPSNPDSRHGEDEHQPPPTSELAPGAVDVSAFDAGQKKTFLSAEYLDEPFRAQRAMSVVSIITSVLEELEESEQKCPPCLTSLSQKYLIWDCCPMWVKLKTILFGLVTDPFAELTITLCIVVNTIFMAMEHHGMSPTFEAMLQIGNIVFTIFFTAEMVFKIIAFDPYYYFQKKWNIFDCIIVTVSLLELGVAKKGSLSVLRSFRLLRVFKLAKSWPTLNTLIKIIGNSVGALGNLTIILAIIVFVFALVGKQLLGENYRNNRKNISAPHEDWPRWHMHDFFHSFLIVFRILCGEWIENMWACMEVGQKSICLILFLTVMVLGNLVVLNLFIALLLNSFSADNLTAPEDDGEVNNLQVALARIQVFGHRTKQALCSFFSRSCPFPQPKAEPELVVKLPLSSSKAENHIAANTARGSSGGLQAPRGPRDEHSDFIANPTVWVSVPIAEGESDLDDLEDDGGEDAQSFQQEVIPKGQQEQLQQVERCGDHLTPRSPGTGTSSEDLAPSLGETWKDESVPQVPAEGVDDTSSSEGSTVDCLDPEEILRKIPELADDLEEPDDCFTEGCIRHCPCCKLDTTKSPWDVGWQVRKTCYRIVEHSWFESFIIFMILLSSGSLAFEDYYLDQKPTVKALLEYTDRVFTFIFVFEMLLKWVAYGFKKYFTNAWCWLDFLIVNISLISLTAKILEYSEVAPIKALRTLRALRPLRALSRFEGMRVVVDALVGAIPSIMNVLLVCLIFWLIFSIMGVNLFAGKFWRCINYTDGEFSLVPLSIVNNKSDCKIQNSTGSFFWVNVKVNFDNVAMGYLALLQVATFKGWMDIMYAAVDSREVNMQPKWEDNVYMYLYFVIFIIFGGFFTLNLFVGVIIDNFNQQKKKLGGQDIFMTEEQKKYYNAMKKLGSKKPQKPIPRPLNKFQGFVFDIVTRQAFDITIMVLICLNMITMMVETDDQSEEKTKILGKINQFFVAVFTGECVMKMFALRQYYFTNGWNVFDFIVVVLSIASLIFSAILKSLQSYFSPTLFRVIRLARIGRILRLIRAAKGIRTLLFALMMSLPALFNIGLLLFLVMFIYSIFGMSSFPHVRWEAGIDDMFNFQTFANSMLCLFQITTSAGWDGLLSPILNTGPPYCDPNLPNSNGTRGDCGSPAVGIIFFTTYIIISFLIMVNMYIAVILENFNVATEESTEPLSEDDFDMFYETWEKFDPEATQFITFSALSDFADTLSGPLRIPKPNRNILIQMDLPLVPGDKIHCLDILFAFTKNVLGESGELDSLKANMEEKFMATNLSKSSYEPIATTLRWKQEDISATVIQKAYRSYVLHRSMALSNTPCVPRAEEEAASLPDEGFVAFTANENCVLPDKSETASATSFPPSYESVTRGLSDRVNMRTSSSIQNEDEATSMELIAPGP
# T1 sequence (Q9NY72 23-215 partner): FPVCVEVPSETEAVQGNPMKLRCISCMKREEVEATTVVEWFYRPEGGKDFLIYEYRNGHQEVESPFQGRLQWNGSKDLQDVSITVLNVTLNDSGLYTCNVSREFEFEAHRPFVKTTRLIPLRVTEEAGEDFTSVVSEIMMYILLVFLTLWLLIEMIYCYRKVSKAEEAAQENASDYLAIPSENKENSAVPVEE
row,Compound,pIC50
1,"Cc1ccc2nn(CC3CCCCC3)c(C(=O)Nc3cc[nH]c(=O)c3)c2c1 [SC-48, 2-(cyclohexylmethyl)-5-methyl-N-(2-oxo-1,2-dihydropyridin-4-yl)-2H-indazole-3-carboxamide]",5.00 to 6.00
2,"O=C(Nc1ccnc(O)c1)c1c2ccccc2nn1CC1CCOC1 (centres unmarked) [SC-50, N-(2-hydroxypyridin-4-yl)-2-(oxolan-3-ylmethyl)indazole-3-carboxamide]",5.00 to 6.00
3,"O=C(Nc1ccnc(O)c1)c1c2ccccc2nn1CC1CCCCO1 (centres unmarked) [SC-53, N-(2-hydroxypyridin-4-yl)-2-(oxan-2-ylmethyl)indazole-3-carboxamide]",5.00 to 6.00
4,"CS(=O)(=O)c1cccc(NC(=O)c2c3ccccc3nn2CC2CCOC2)c1 (centres unmarked) [SC-56, N-(3-methylsulfonylphenyl)-2-(oxolan-3-ylmethyl)indazole-3-carboxamide]",5.00 to 6.00
5,"CS(=O)(=O)c1cccc(NC(=O)c2c3ccc(F)cc3nn2CCC2CCCC2)c1 [SC-61, 2-(2-cyclopentylethyl)-6-fluoro-N-(3-methylsulfonylphenyl)indazole-3-carboxamide]",6.00 to 7.00
6,"CS(=O)(=O)c1cccc(NC(=O)c2c3ccc(F)cc3nn2CC2CC(F)(F)C2)c1 [SC-62, 2-[(3,3-difluorocyclobutyl)methyl]-6-fluoro-N-(3-methylsulfonylphenyl)indazole-3-carboxamide]",6.00 to 7.00
7,"CS(=O)(=O)c1cccc(NC(=O)c2c3ccccc3nn2CC2CCCC2)c1 [SC-67, 2-(cyclopentylmethyl)-7V-(3-methylsulfonylphenyl)indazole-3-carboxamide]",6.00 to 7.00
8,"CS(=O)(=O)c1cccc(NC(=O)c2c3ccc(F)cc3nn2CC2CCC3(CC2)CC3)c1 [SC-70, 6-fluoro-N-(3-methylsulfonylphenyl)-2-(spiro[2.5]octan-6-ylmethyl)indazole-3-carboxamide]",5.00 to 6.00
9,"O=C(Nc1ccnc(O)c1)c1c2ccc(F)cc2nn1CC1CCCCO1 (centres unmarked) [SC-71, 6-fluoro-N-(2-hydroxypyridin-4-yl)-2-[[oxan-2-yl]methyl]indazole-3-carboxamide]",5.00 to 6.00
10,"O=C(Nc1ccnc(O)c1)c1c2ccccc2nn1CC1CCCC1 [SC-73, 2-(cyclopentylmethyl)-N-(2-hydroxypyridin-4-yl)indazole-3-carboxamide]",6.00 to 7.00

# More lines, now with the values ahead:
row,pIC50,Compound
1,≥ 7.00,"Cc1cccc2c(C(=O)Nc3cccc(S(C)(=O)=O)c3)n(CC3CCCCC3)nc12 [SC-45, 2-(cyclohexylmethyl)-7-methyl-N-(3-methylsulfonylphenyl)indazole-3-carboxamide]"
2,6.00 to 7.00,"Cc1ccc2nn(CC3CCCCC3)c(C(=O)Nc3cccc(S(C)(=O)=O)c3)c2c1 [SC-46, 2-(cyclohexylmethyl)-5-methyl-N-(3-methylsulfonylphenyl)indazole-3-carboxamide]"
3,≥ 7.00,"CS(=O)(=O)c1cccc(NC(=O)c2c3c(F)cccc3nn2CC2CCCCC2)c1 [SC-47, 2-(cyclohexylmethyl)-4-fluoro-N-(3-methylsulfonylphenyl)indazole-3-carboxamide]"
4,6.00 to 7.00,"O=C(Nc1ccnc(O)c1)c1c2c(F)cccc2nn1CC1CCCCC1 [SC-49, 2-(cyclohexylmethyl)-4-fluoro-N-(2-hydroxypyridin-4-yl)indazole-3-carboxamide]"
5,6.00 to 7.00,"CS(=O)(=O)c1cccc(NC(=O)c2c3ccccc3nn2CC2CCCCO2)c1 (centres unmarked) [SC-58, N-(3-methylsulfonylphenyl)-2-(oxan-2-ylmethyl)indazole-3-carboxamide]"
6,6.00 to 7.00,"CS(=O)(=O)c1cccc(NC(=O)c2c3ccc(F)cc3nn2CC2CCOCC2)c1 [SC-60, 6-fluoro-N-(3-methylsulfonylphenyl)-2-(oxan-4-ylmethyl)indazole-3-carboxamide]"
7,≥ 7.00,"CC1(C)CC(Cn2nc3cc(F)ccc3c2C(=O)Nc2cccc(S(C)(=O)=O)c2)C1 [SC-68, 2-[(3,3-dimethylcyclobutyl)methyl]-6-fluoro-N-(3-methylsulfonylphenyl)indazole-3-carboxamide]"
